# In patent US20240368135A1 (VERTEX PHARMACEUTICALS INCORPORATED, priority 2021, published 2024):
# Molecular target: human NaV 1.8 (Homo sapiens, UniProt Q9Y5Y9)
# Experiment: E-VIPR assay detecting and measuring NaV inhibition properties
# Type: cell-based
# Settings: HEK cells expressing truncated human NaV 1.8; in the presence of human serum (compound numbers followed by *); read-out: IC50 in the E-VIPR Assay, performed in the presence of human serum
# In short: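 Membrane potential was followed by coumarin/oxonol FRET during electrical field stimulation of matrigel-seeded HEK cells carrying truncated human NaV1.8 plus KIR2.1. Dosing used 11 points, 3-fold steps, top 300 nM final, 0.625% DMSO, with or without 25% human serum.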
# human NaV 1.8, sequence (Q9Y5Y9 126-399 limits assumed): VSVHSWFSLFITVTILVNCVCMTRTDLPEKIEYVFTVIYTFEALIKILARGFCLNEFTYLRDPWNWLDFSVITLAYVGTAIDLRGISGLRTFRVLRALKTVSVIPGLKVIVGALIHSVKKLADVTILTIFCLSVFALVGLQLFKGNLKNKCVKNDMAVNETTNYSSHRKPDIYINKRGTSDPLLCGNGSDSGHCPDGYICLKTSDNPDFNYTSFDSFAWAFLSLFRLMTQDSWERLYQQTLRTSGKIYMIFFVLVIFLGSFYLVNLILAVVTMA
# human NaV 1.8, sequence (Q9Y5Y9 660-890 limits assumed): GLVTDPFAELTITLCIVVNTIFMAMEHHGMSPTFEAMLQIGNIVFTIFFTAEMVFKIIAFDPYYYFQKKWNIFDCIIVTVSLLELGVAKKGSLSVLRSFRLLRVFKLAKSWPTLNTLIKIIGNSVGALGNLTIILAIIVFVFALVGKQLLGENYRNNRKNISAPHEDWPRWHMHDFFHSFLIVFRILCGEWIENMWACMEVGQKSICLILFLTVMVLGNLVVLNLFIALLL
# human NaV 1.8, sequence (Q9Y5Y9 1148-1722 limits assumed): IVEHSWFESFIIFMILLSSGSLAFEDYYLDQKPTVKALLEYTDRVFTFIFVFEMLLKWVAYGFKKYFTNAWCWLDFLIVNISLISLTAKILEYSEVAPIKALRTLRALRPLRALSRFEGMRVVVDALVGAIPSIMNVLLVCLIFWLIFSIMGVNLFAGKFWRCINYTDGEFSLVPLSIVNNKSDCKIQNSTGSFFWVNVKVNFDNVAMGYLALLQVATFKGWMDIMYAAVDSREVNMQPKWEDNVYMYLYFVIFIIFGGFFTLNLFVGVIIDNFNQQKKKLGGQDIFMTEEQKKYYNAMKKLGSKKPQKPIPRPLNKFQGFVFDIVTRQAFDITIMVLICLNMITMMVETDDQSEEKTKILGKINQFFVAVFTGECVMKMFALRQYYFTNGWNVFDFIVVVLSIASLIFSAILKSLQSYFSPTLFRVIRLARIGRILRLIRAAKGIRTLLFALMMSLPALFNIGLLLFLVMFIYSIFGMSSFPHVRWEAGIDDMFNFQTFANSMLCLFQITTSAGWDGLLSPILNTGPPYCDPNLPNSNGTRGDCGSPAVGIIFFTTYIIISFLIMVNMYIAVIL
row,Structure (SMILES),IC50 [nM]
1,"COc1c(C2C(C(=O)Nc3ccnc(C(O)C(C)O)c3)OC(C)(C(F)(F)F)C2C)ccc(F)c1C (single isomer, unassigned) [Compound 142]",≥ 1000
2,"COc1c([C@H]2[C@H](C(=O)Nc3ccc4nc[nH]c4c3)O[C@@](C)(C(F)(F)F)[C@H]2C)ccc(F)c1F [Compound 212, (2R,3S,4S,5R)-N-(1H-benzo[d]imidazol-6-yl)-3-(3,4-difluoro-2-methoxyphenyl)-4,5-dimethyl-5-(trifluoromethyl)tetrahydrofuran-2-carboxamide]",100 to 1000

# Same assay, conditions: HEK cells expressing truncated human NaV 1.8; no human serum; read-out: IC50 in the E-VIPR Assay
row,Structure (SMILES),IC50 [nM]
1,"COc1c([C@H]2[C@H](C(=O)NC(C)c3cnn(C)c3)O[C@@](C)(C(F)(F)F)[C@H]2C)ccc(F)c1F (stereo partly drawn) [Compound 296, (2R,3S,4S,5R)-3-(3,4-difluoro-2-methoxyphenyl)-4,5-dimethyl-N-(1-(1-methyl-1H-pyrazol-4-yl)ethyl)-5-(trifluoromethyl)tetrahydrofuran-2-carboxamide]",≥ 1000
2,"COc1c([C@H]2[C@H](C(=O)NCCc3ncc[nH]3)O[C@@](C)(C(F)(F)F)[C@H]2C)ccc(F)c1F [Compound 272, (2R,3S,4S,5R)-3-(3,4-difluoro-2-methoxy-phenyl)-N-[2-(1H-imidazol-2-yl)ethyl]-4,5-dimethyl-5-(trifluoromethyl)tetrahydrofuran-2-carboxamide]",≥ 1000
3,"COc1c(C2C(C(=O)Nc3ccc(C(N)=O)nc3)OC(C)(C(F)(F)F)C2C)ccc(C(F)F)c1F (stereo not shown) [Compound 159, 5-[[3-[4-(difluoromethyl)-3-fluoro-2-methoxy-phenyl]-4,5-dimethyl-5-(trifluoromethyl)tetrahydrofuran-2-carbonyl]amino]pyridine-2-carboxamide]",≥ 1000
4,"Cc1nn(C(F)F)cc1NC(=O)[C@@H]1O[C@@](C)(C(F)(F)F)[C@@H](C)[C@H]1c1ccc(F)c(F)c1CO [Compound 668, (2R,3S,4S,5R)-3-(3,4-difluoro-2-(hydroxymethyl)phenyl)-N-(1-(difluoromethyl)-3-methyl-1H-pyrazol-4-yl)-4,5-dimethyl-5-(trifluoromethyl)tetrahydrofuran-2-carboxamide]",10 to 100
5,"C[C@H]1[C@@H](c2ccc(F)c(F)c2OC(F)F)[C@H](C(=O)Nc2ccc(CC(C)(C)O)nc2)O[C@@]1(C)C(F)(F)F (single isomer, unassigned) [Compound 462]",100 to 1000
6,"COc1c([C@H]2[C@H](C(=O)Nc3cc(C4(N)CCOC4)ncc3F)O[C@@](C)(C(F)(F)F)[C@H]2C)ccc(F)c1F (single isomer, unassigned) [Compound 348, rel-(2R*,3S*,4S*,5R*)-N-(2-(3-aminotetrahydrofuran-3-yl)-5-fluoropyridin-4-yl)-3-(3,4-difluoro-2-methoxyphenyl)-4,5-dimethyl-5-(trifluoromethyl)-tetrahydrofuran-2-carboxamide]",10 to 100
7,"COCCNCc1cc(NC(=O)C2OC(C)(C(F)(F)F)C(C)C2c2ccc(F)c(F)c2OC)ccn1 (stereo not shown) [Compound 59, 3-(3,4-difluoro-2-methoxy-phenyl)-N-[2-[(2-methoxyethylamino)methyl]-4-pyridyl]-4,5-dimethyl-5-(trifluoromethyl)tetrahydrofuran-2-carboxamide]",≥ 1000

# Next, values leading:
row,IC50 [nM],Structure (SMILES)
1,< 10,"COc1c([C@H]2[C@H](C(=O)Nc3ccnc(C(O)CF)c3)O[C@@](C)(C(F)(F)F)[C@H]2C)ccc(F)c1F (single isomer, unassigned) [Compound 253, rel-(2R*,3S*,4S*,5R*)-3-(3,4-difluoro-2-methoxyphenyl)-N-(2-(2-fluoro-1-hydroxyethyl)pyridin-4-yl)-4,5-dimethyl-5-(trifluoromethyl)tetrahydrofuran-2-carboxamide]"
2,< 10,"COc1c([C@H]2[C@H](C(=O)Nc3cnc(C(N)=O)nc3)O[C@@](C)(C(F)(F)F)[C@H]2C)ccc(F)c1C(F)F (stereo in doubt) [Compound 173, rel-5-((2R,3S,4S,5R)-3-(3-(difluoromethyl)-4-fluoro-2-methoxyphenyl)-4,5-dimethyl-5-(trifluoromethyl)tetrahydrofuran-2-carboxamido)pyrimidine-2-carboxamide]"
3,< 10,"COc1c([C@H]2[C@H](C(=O)Nc3ccnc(C(CO)N(C)C)c3)O[C@@](C)(C(F)(F)F)[C@H]2C)ccc(F)c1F (single isomer, unassigned) [Compound 230, rel-(2R*,3S*,4S*,5R*)-3-(3,4-difluoro-2-methoxyphenyl)-N-(2-(-1-(dimethylamino)-2-hydroxyethyl)pyridin-4-yl)-4,5-dimethyl-5-(trifluoromethyl)tetrahydrofuran-2-carboxamide]"
4,< 10,"COc1c([C@H]2[C@H](C(=O)Nc3ccnc(C(O)CN(C)C)c3)O[C@@](C)(C(F)(F)F)[C@H]2C)ccc(F)c1F (stereo partly drawn) [Compound 378, (2R,3S,4S,5R)-3-(3,4-difluoro-2-methoxy-phenyl)-N-[2-[2-(dimethylamino)-1-hydroxy-ethyl]-4-pyridyl]-4,5-dimethyl-5-(trifluoromethyl)tetrahydrofuran-2-carboxamide]"
5,< 10,"COc1c([C@H]2[C@H](C(=O)Nc3ccc(C(=O)O)nc3)O[C@@](C)(C(F)(F)F)[C@H]2C)ccc(F)c1F [Compound 19, 5-[[(2R,3S,4S,5R)-3-(3,4-difluoro-2-methoxy-phenyl)-4,5-dimethyl-5-(trifluoromethyl)tetrahydrofuran-2-carbonyl]amino]pyridine-2-carboxylic acid]"
6,10 to 100,"COc1c([C@H]2[C@H](C(=O)Nc3ccnc(O[C@H]4COC[C@H]4O)n3)O[C@@](C)(C(F)(F)F)[C@H]2C)ccc(F)c1F (single isomer, unassigned) [Compound 242, rel-(2R*,3S*,4S*,5R*)-3-(3,4-difluoro-2-methoxyphenyl)-N-(2-(((3S,4R)-4-hydroxytetrahydrofuran-3-yl)oxy)pyrimidin-4-yl)-4,5-dimethyl-5-(trifluoromethyl)tetrahydrofuran-2-carboxamide]"
7,< 10,"COCC(O)c1cc(NC(=O)[C@@H]2O[C@@](C)(C(F)(F)F)[C@@H](C)[C@H]2c2ccc(F)c(F)c2OC)ccn1 (single isomer, unassigned) [Compound 222, rel-(2R*,3S*,4S*,5R*)-3-(3,4-difluoro-2-methoxyphenyl)-N-(2-(1-hydroxy-2-methoxyethyl)pyridin-4-yl)-4,5-dimethyl-5-(trifluoromethyl)tetrahydrofuran-2-carboxamide]"
8,< 10,"COc1c([C@H]2[C@H](C(=O)Nc3ccc(C(N)=O)nc3)O[C@@](C)(C(F)(F)F)[C@H]2C)ccc(OC(F)F)c1F [Compound 682, 5-((2R,3S,4S,5R)-3-(4-(difluoromethoxy)-3-fluoro-2-methoxyphenyl)-4,5-dimethyl-5-(trifluoromethyl)tetrahydrofuran-2-carboxamido)picolinamide]"
9,< 10,"Cc1c(F)ccc(C2C(C(=O)Nc3ccn(C)c(=O)c3)OC(C)(C(F)(F)F)C2C)c1OC(F)F (stereo not shown) [Compound 98, 3-[2-(difluoromethoxy)-4-fluoro-3-methyl-phenyl]-4,5-dimethyl-N-(1-methyl-2-oxo-4-pyridyl)-5-(trifluoromethyl)tetrahydrofuran-2-carboxamide]"
10,< 10,"COc1c([C@H]2[C@H](C(=O)Nc3ccnc(C(C)(O)CO)c3)O[C@@](C)(C(F)(F)F)[C@H]2C)ccc(F)c1F (relative stereo) [Compound 3, rel-(2R*,3S*,4S*,5R*)-3-(3,4-difluoro-2-methoxyphenyl)-N-(2-(1,2-dihydroxypropan-2-yl)pyridin-4-yl)-4,5-dimethyl-5-(trifluoromethyl)tetrahydrofuran-2-carboxamide]"
